From patent US20220098160A1, “NOVEL CDK 8/19 INHIBITORS” (BIOCAD, priority 2018, published 2022) come the findings set out here.

Counter-ions that a name gives are not always drawn.

The test system of series [1] is MV4-11 cell line. In words: Antiproliferative activity on MV4-11 cell line (AlamarBlue). The following applies: Homo sapiens, 120 h incubation, average of several runs, read-out: MV-4-11 IC50. It counts as cell-based. As to the method: The antiproliferative activity of the CDK8 inhibitors according to the present invention was measured in a cell test on a finite MV4-11 cell line (biphenotypic myelomonocytic leukemia, ATCC© CRL-9591™) using an intravital AlamarBlue dye (ThermoFisher, #DAL1100). The cells were grown on an RPMI-1640 medium (PanEco, #C330p) supplemented with 10% FBS (Gibco, #16140-071), then washed and re-seeded on a culture medium with 10% FBS (Gibco, #16140-071) in 96-well culture plates (Corning, #3599) in the amount of ˜10×10^3 cells per 100 μl of medium per well. The tested compounds were dissolved in DMSO and diluted with 10% FBS (Gibco, #16140-071) to a final concentration ranging from 0 to 100 μM. […] At the end of the incubation period, 15 μl of AlamarBlue reagent (ThermoFisher, #DAL1100) were added to the wells. The contents of the plates were mixed using an orbital shaker (Biosan, Latvia), and incubated further from 3 to 5 hours at 37° C. in an incubator with 5% C02. The number of living cells was detected using a microplate spectrophotometer (Tecan Infinite M200Pro, Switzerland) by measuring a fluorescence signal at an excitation wavelength (λEx) of 540 nm and emission wavelength (λEm) of 590 nm.
The IC50 value was determined using the Magellan 7.2 program (Tesap, Switzerland) by approximating the experimental points using a four-parameter model with the Levenberg-Marquardt optimization (Table 10).
(The colour change of resazurin is a common sign of viable cells or microbes.)

The nature of series [2]: General cytotoxicity test on HepG2 cells. It is filed as cell-based. The following applies: human, 72 hours incubation, 200 to 0.78 μM, average of several runs, read-out: Hep-G2 CC50. The protocol:
The CC50 value was determined in a cytotoxicity test. The experiments were performed using HepG2 cells (hepatocellular carcinoma, ATCC© HB-8065™). The cells were seeded into 96-well plates (Corning, #3599) at a concentration of ˜20×10^3 cells per 100 μl of medium per well, and incubated for 72 hours with the introduced compounds in the concentration range from 200 to 0.78 μM. Cell viability was evaluated according to the method described above.

The target of series [3] is T1, CDK8/CyclinC (Homo sapiens, UniProt P49336).
T1 construct: purchased ThermoFisher PR7261B
T1 sequence (P49336 whole entry): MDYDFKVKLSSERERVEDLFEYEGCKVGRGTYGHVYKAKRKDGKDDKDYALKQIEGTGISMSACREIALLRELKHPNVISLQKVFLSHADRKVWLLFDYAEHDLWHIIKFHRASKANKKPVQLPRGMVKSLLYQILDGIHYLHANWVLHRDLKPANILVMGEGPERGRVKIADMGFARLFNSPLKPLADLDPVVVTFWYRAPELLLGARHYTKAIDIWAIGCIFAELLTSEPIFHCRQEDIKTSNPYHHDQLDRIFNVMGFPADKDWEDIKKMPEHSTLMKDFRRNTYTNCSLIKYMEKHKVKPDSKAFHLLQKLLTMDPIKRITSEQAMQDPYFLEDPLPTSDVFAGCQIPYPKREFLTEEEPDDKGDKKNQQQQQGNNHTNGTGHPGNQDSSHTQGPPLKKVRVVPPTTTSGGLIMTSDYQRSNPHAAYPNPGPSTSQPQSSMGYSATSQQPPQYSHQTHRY
T1 sequence (P24863 whole entry partner): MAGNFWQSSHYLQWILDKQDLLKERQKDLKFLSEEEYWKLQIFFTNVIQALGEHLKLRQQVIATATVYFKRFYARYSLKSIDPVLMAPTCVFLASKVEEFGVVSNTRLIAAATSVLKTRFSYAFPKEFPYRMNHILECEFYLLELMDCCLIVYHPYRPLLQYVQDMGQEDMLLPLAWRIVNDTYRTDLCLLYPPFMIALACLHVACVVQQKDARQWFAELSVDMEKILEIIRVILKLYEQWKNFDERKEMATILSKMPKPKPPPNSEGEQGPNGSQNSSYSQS
In words: LanthaScreen TR-FRET binding to recombinant CDK8 in complex with Cyclin C. Particulars: CDK8/CyclinC 5 nM, Tracer 236 10 nm, average of several runs; read-out: CDK8-CycC IC50. As to the method:
The ability of the compounds described herein to bind to the CDK8 protein was determined using the LanthaScreen method (ThermoFisher).
The measurements were conducted in a reaction volume (15 μl) using a 384-well plate (Corning, #CLS4513). CDK8/CyclinC enzyme (ThermoFisher, #PR7261B) was mixed with Anti-His-tag-Biotin antibodies (ThermoFisher, #PV6090), Streptavidin-Eu (ThermoFisher, #PV6025), and the resulting mixture was added to the wells of the plate in the amount of 5 μl per well. The final concentrations of the substances were as follows: CDK8/CyclinC—5 nM, Streptavidin-Eu—3 nM, Anti-His-tag-Biotin—3 nM. Staurosporine was used as a control inhibitor, and a 0.1% solution of dimethyl sulfoxide (DMSO) in the reaction buffer containing 250 mM HEPES (pH 7.5), 50 mM MgCl2, 5 mM EGTA, and 0.05% Brij-35 was used as a blank.
Tested inhibitors and controls were added to the corresponding wells in the amount of 5 μl per well. The plate was incubated at room temperature for 20 minutes. […] The final concentration of the tracer was 10 nm. A reaction buffer was used as a negative control instead of the tracer solution. The plate was incubated for 40 minutes at 25° C. Then the TR-FRET signal was measured on a SPARK20 plate reader (Tesap, Switzerland) according to the manufacturer's recommendations, and converted to the amount of kinase-bound tracer. The IC50 value was determined using the SparkControl Magellan 1.2 program (Tesap, Switzerland) by approximating the experimental points using a four-parameter model with the Levenberg-Marquardt optimization (Table 11).

The nature of series [4]: Chemical stability in human blood plasma. It is filed as in vitro ADME. Particulars: pooled human blood plasma, 10 μM, 4 hours at 37° C., amount of substance remaining. As to the method:
Chemical stability of the compounds described herein was determined in human blood plasma.
The determination of stability in human blood plasma was performed using a pooled human blood plasma taken from ten healthy donors. The initial solution of the candidate (10 mM in DMSO) was diluted with the pooled blood plasma to a concentration of 10 μM (test solution). The test solution was incubated in a solid-state thermostat for 4 hours at 37° C. The HPLC method and Agilent1200 chromatograph (Agilent, USA) were used to determine the peak areas of the compounds in the test samples corresponding to the initial test time (before incubation) and the final test time (after incubation in a solid-state thermostat for 4 hours at 37° C.) with preliminary precipitation of proteins using acetonitrile. Chromatographic analysis was performed using a gradient elution mode at a flow rate of 1 ml/min. The amount of substance in the sample expressed in % was determined after the thermostat treatment.

The nature of series [5]: Enzymatic stability in human liver S9 fractions. Particulars: pooled human liver S9 fraction; 0.5 mg/ml human liver S9, 10 μm compound, 37° C., pH 7.4. It is filed as in vitro ADME. The protocol:
Determining enzymatic stability of the candidates made it possible to evaluate the resistance of the compounds of the present invention to the exposure to biotransformation enzymes.
The enzymatic decomposition rate of the compounds was determined by incubation in a solid-state thermostat at 37° C. of a reaction mixture containing 0.5 mg/ml of pooled S9 fractions of the human liver (XenoTech, USA, cat. # H0610), 10 μm compounds, 2 mM β-nicotinamide adenine dinucleotide (Carbosynth, UK, cat. # NN 10871), and 4 mM magnesium chloride in 0.1 M sodium phosphate buffer (pH=7.4). The reaction was stopped with acetonitrile based on 100 μl of acetonitrile per 100 μl of the reaction mixture. After stopping the reaction, the samples were centrifuged for 10 minutes at 10,000 rpm. The supernatant was analyzed by chromatography using an Agilent1200 chromatograph (Agilent, USA). Chromatographic analysis was performed in a gradient elution mode at a flow rate of 1 ml/min. A logarithm of the peak area of the substance was plotted versus time. The dependent coefficient of this line corresponded to the elimination rate constant (k), which was used to calculate the half-life of the drug (t1/2) and decomposition rate (CLint): […]

Series [6] can be described thus: Permeability through a monolayer of Caco-2 cells. The following applies: human. It counts as in vitro ADME. As to the method: Determining the permeability through a monolayer of Caco-2 cells makes it possible to assess the ability of the substances to penetrate biological membranes by means of both active and passive transport.
The intestinal epithelial cells (Caco-2) were cultured using filter inserts ([…], BD Falcon with High Density) for 21 days, after which the monolayer integrity was checked using a Lucifer Yellow dye (Sigma-Aldrich, USA) according to the standard protocol. When setting up an A→B transfer (“intestinal lumen”—“blood flow” transfer), solutions of the tested substances were introduced in pH 6.5 buffer (HBSS, 10 mM HEPES, 15 mM glucose solution) at a concentration of 10 μM into the upper chamber, while the lower chamber was filled with pH 7.4 buffer (HBSS, 10 mM HEPES, 15 mM Glucose solution, 1% BSA). When setting up a B→A transfer (“blood flow”—“intestinal lumen” transfer), the upper chamber was filled with pH 6.5 buffer, and the solutions of the tested substances were introduced in pH 7.4 buffer at a concentration of 10 μM into the lower chamber. Propranolol, which is a high permeability substance, was used as a control.
After incubation for 2 h at 37° C. in an atmosphere containing 5% CO2, the amounts of the tested substances in the upper and lower chambers were determined by the HPLC method using an Agilent1200 chromatograph (Agilent, USA) with preliminary precipitation of proteins with acetonitrile. Chromatographic analysis was performed using a gradient elution mode at a flow rate of 1 ml/min. Peak areas corresponding to the compounds were determined on chromatograms. Based on the peak area values of the compound in calibration standards, compound concentrations in the initial solution and in the samples taken from the wells of the upper and lower chambers were determined.
Permeability through a layer of cells (Papp) was calculated based on the formula:
Papp=(C(t)*V)/(C(θ)*t*Area), where
Papp is the effective permeability constant, m/s V is the solution volume (0.8 ml in the A→B test, and 0.2 ml in the B→A test), ml Area is the surface area of the membrane (0.33 cm^2), cm^2 t is the incubation time (7,200 s), s C(θ) is the concentration of the initial solution, μM C(t) is the concentration of the solution after 2 hours (in the sample from the lower chamber well (test A→B), and in the sample from the upper chamber well (test B→A)), μM.
The value was calculated using the following formula:
efflux=Papp B-A/Papp A-B, where
Papp A-B is the permeability value during direct assay (A→B); Papp B-A is the permeability value during reverse assay (B→A);
Background: Caco-2 monolayers are a common model of the intestinal barrier.

What is called IC50 is the concentration needed to halve the response being measured. In general, CC50 refers to the concentration giving 50% cytotoxicity. For the molecule `CCN1CCN(C(=O)c2ccc3cc(CCNc4ccnc5ccc(C#N)cc45)ccc3c2)CC1` [Compound 12], the IC50 in series [1] came out at 79 nM; in series [3], 6.54 nM. In addition, in series [2], the CC50 at 72 h turned out to be 10.6 µM.

`N#Cc1ccc2nccc(NCCc3ccc4cc(C(=O)N5CCOCC5)ccc4c3)c2c1` [Compound 13]: the IC50 is 57 nM in series [1] and 4.04 nM in series [3]. Besides, the CC50 at 72 h in series [2] was ~15 µM.

Regarding `N#Cc1ccc2nccc(NCCc3ccc4cc(C(=O)N5CCN(CC(F)(F)F)CC5)ccc4c3)c2c1` [Compound 17, 4-((2-(6-(4-(2,2,2-trifluoroethyl)piperazine-4-carbonyl)naphth-2-yl)ethyl)amino)quinoline-6-carbonitryl], the IC50 was determined as 113 nM in series [1] and 28.5 nM in series [3]. Besides, in series [2], the CC50 at 72 h was found to be 17.9 µM.

In the case of `CN1CCN(C(=O)c2ccc3cc(CCNc4cnnc5ccc(C#N)cc45)ccc3c2)CC1` [Compound 4, 4-((2-(6-(4-methylpiperazine-1-carbonyl)naphth-2-yl)ethyl)amino) cinnoline-6-carbonitryl], the IC50 in series [3] worked out at 404 nM.

On to `CN1CCN(C(=O)c2ccc3cc(CCNc4c(Cl)cnc5ccc(C#N)cc45)ccc3c2)CC1` [Compound 9, 3-chloro-4-((2-(6-(4-methylpiperazine-1-carbonyl)naphth-2-yl)ethyl)amino) quinoline-6-carbonitryl], for which the “Stability in blood plasma, %” value in series [4] came out at 91.1%. Besides, the IC50 in series [1] stood at 106 nM; in series [3], 20.5 nM. Further, the CC50 at 72 h in series [2] turned out to be 47.3 µM.

Take `CN1CCN(C(=O)c2ccc3cc(CCOc4ccnc5ccc(C#N)cc45)ccc3c2)CC1` [Compound 8, 4-(2-(6-(4-methylpiperazine-1-carbonyl)naphth-2-yl)ethoxy) quinoline-6-carbonitryl]: the figures for the IC50 in series [1] and in series [3] were 602 nM and 58.2 nM, respectively. Moreover, the CC50 at 72 h in series [2] is 11.2 µM.

For `CC(C)N1CCN(C(=O)c2ccc3cc(CCNc4ccnc5ccc(C#N)cc45)ccc3c2)CC1` [Compound 7], the results for the IC50 in series [1] and in series [3] were 91 nM and 5.77 nM, respectively. In addition, the CC50 at 72 h in series [2] stood at 8.9 µM.

Regarding `CN1CCN(C(=O)c2ccc3cc(CCSc4ccnc5ccc(C#N)cc45)ccc3c2)CC1` [Compound 19, 4-((2-(6-(4-methylpiperazine-1-carbonyl)naphth-2-yl)ethyl)thio) quinoline-6-carbonitryl], the values for the IC50 in series [1] and in series [3] were 2610 nM and 118 nM, respectively. Moreover, the CC50 at 72 h in series [2] was > 200 µM.

As to `CN1CCN(C(=O)c2ccc3cc(CCNc4ccnc5ncc(C#N)cc45)ccc3c2)CC1` [Compound 11, 5-((2-(6-(4-methylpiperazine-1-carbonyl)naphth-2-yl)ethyl)amino)-1,8-naphthyridin-3-carbonitryl], the IC50 is 3300 nM in series [1] and 655 nM in series [3]. Also, the CC50 at 72 h in series [2] is 85.1 µM.

The microsomal CLint is the capacity of the preparation to metabolise the compound, expressed as a volume cleared per time. High values mean faster metabolism, low ones greater metabolic stability. Broadly, the Papp A→B is how fast a substance crosses the layer from the apical side. For orientation: efflux ratio means the permeability from basolateral to apical divided by that in the opposite direction, in the common usage. Take `N#Cc1ccc2nccc(NCCc3ccc4cc(C(=O)N5CCNCC5)ccc4c3)c2c1` [Compound 18, 4-((2-(6-(piperazine-1-carbonyl)naphth-2-yl)ethyl)amino)quinoline-6-carbonitryl]: in series [4], the “Stability in blood plasma, %” value came to 100%. Besides, the microsomal CLint at 10 μM in series [5] was 4.4 µL/min/mg. Moreover, the Papp A→B at 2 h, 10 μM in series [6] (A→B, pH 6.5 upper / pH 7.4 lower chamber, 2 h at 37° C.) was found to be 22.4 ×10⁻⁶ cm/s. Moreover, in series [6] (Papp B-A/Papp A-B, 2 h), the efflux ratio at 2 h, 10 μM was found to be 0.3. Also, the IC50 in series [1] stood at 19 nM. Also, in series [2], the cytotoxic concentration (CC50) at 72 h was 11.6 µM.

Take `CN1CCN(C(=O)c2ccc3cc(CCNc4c(Cl)cnc5ccc(C#N)cc45)ccc3c2)CC1` [Compound 9a, 3-chloro-4-((2-(6-(4-methylpiperazine-1-carbonyl)naphth-2-yl)ethyl)amino) quinoline-6-carbonitryl dihydrochloride]: in series [4] (dihydrochloride), the “Stability in blood plasma, %” value was 87.9%.
